Laboratory results taken from US20240132464A1, “HETEROCYCLIC COMPOUNDS AS E3 LIGASE INHIBITORS” (Accutar Biotechnology Inc., priority 2022, published 2024).

target: T1, GID4 (Uniprot ID: Q81VV7, residues 124-289) (Homo sapiens, UniProt Q8IVV7); test: GID4 competitive binding assay (AlphaScreen, GID4/degron peptide PGLW); conditions: 24 nM GID4, 48 nM biotinylated degron peptide PGLW, 4° C., read-out: IC50 (Inhibition of GID4/Degron binding by test compounds)
T1 construct: GID4 (Uniprot ID: Q81VV7, residues 124-289)
T1 sequence (Q8IVV7 124-289): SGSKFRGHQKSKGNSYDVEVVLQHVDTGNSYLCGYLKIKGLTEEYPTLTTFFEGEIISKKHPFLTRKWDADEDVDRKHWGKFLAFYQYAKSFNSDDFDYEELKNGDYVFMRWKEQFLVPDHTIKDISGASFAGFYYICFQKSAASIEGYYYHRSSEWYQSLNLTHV
Outline: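 Displacement of biotin-tagged degron tetrapeptide PGLW (48 nM) from C-terminally 6His-tagged GID4 124-289 (24 nM) read by AlphaScreen proximity signal. Compound incubation 2 h, then beads 1 h, all at 4 °C, pH 7.5, 2% DMSO final; background-corrected inhibition fitted with variable slope for IC50.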

First: CCc1cc(N2CCNC(c3cnc4ccccn34)C2)nc(N)n1 (single isomer, unassigned) [Compound 27, (R/S)-4-ethyl-6-(3-(imidazo[1,2-a]pyridin-3-yl)piperazin-1-yl)pyrimidin-2-amine]
Second: CC(C)c1cc(N2CCN[C@@H](c3cnc4ccccn34)C2)c2nc[nH]c2n1 (stereo in doubt) [Compound 368, (R/S)-7-(3-(imidazo[1,2-a]pyridin-3-yl)piperazin-1-yl)-5-isopropyl-3H-imidazo[4,5-b]pyridine]
The IC50 of the first is higher: greater than 5 µM for the first, 0.5 to 5 µM for the second. The second is the more potent here.

`CN1CCC(CNC(=O)c2ccc(-c3cc(O)c4ncccc4c3)cc2)CC1` [Compound 300, 4-(8-hydroxyquinolin-6-yl)-N-((1-methylpiperidin-4-yl)methyl)benzamide] and `CN1CCC(NC(=O)c2ccc(-c3cc(O)c4ncccc4c3)cc2)CC1` [Compound 297, 4-(8-hydroxyquinolin-6-yl)-N-(1-methylpiperidin-4-yl)benzamide] cannot be ordered by IC50: less than 0.5 µM for the first, less than 0.5 µM for the second.

Compared with `COC1CCN(C(=O)c2cccc(-c3ccc4ccnc(N)c4c3)c2)CC1` [Compound 346, (3-(1-aminoisoquinolin-7-yl)phenyl)(4-methoxypiperidin-1-yl)methanone], `CN1CCN(C(=O)c2cccc(-c3ccc4ccnc(N)c4c3)c2)CC1` [Compound 351, (3-(1-aminoisoquinolin-7-yl)phenyl)(4-methylpiperazin-1-yl)methanone] is higher in IC50: 0.5 to 5 µM for the first, greater than 5 µM for the second.

Going from `CNc1cc(N2CCN(C)[C@@H](c3ccccc3Br)C2)nc(N)n1` (stereo in doubt) [Compound 155, (S/R)-6-(3-(2-bromophenyl)-4-methylpiperazin-1-yl)-N4-methylpyrimidine-2,4-diamine] to `Nc1cc(N2CCN(CCO)[C@@H](c3ccccc3Br)C2)nc(N)n1` (stereo in doubt) [Compound 66, (S/R)-2-(2-(2-bromophenyl)-4-(2,6-diaminopyrimidin-4-yl)piperazin-1-yl)ethan-1-ol], the IC50 rises from less than 0.5 µM to greater than 5 µM. The first is the more potent here.

First: Nc1nc2c(c(N3CCCC(c4ccn[nH]4)C3)n1)CCCN2 (centres unmarked) [Compound 187, 4-(3-(1H-pyrazol-5-yl)piperidin-1-yl)-5,6,7,8-tetrahydropyrido[2,3-d]pyrimidin-2-amine]
Second: Nc1nc2c(c(N3CCCC(c4ccn[nH]4)C3)n1)CCC2 (centres unmarked) [Compound 195, 4-(3-(1H-pyrazol-5-yl)piperidin-1-yl)-6,7-dihydro-5H-cyclopenta[d]pyrimidin-2-amine]
The IC50 of the first is lower: 0.5 to 5 µM for the first, greater than 5 µM for the second.

`Nc1cc(N2CCN(CCO)[C@@H](c3ccccc3Br)C2)nc(NC2CC2)n1` (stereo in doubt) [Compound 69, (S/R)-2-(4-(6-amino-2-(cyclopropylamino)pyrimidin-4-yl)-2-(2-bromophenyl)piperazin-1-yl)ethan-1-ol] and `Nc1nc(NC2CC2)cc(N2CCO[C@@H](c3ccccc3)C2)n1` (racemic) [Compound 95, (S/R)-N4-cyclopropyl-6-(2-phenylmorpholino)pyrimidine-2,4-diamine] cannot be ordered by IC50: greater than 5 µM for the first, greater than 5 µM for the second.

First: CN(C)CCCNC(=O)c1ccc(-c2cc3cccnc3c(O)c2Cl)cc1 [Compound 321, 4-(7-chloro-8-hydroxyquinolin-6-yl)-N-(3-(dimethylamino)propyl)benzamide]
Second: CN(C)CCCNC(=O)c1ccc(-c2cc(O)c3ncccc3c2)c(F)c1Cl [Compound 310, 2-chloro-N-(3-(dimethylamino)propyl)-3-fluoro-4-(8-hydroxyquinolin-6-yl)benzamide]
The IC50 of the first is lower: less than 0.5 µM for the first, 0.5 to 5 µM for the second. The first is the more potent here.

`CNc1cc(N2CCOC(c3ccccc3)C2)nc(N)n1` (single isomer, unassigned) [Compound 108, (R/S)-N4-methyl-6-(2-phenylmorpholino)pyrimidine-2,4-diamine] and `CNc1cc(N2CCCC(n3nnc4ccccc43)C2)nc(N)n1` (centres unmarked) [Compound 93, 6-(3-(1H-benzo[d][1,2,3]triazol-1-yl)piperidin-1-yl)-N4-methylpyrimidine-2,4-diamine] cannot be ordered by IC50: greater than 5 µM for the first, greater than 5 µM for the second.

Compared with `O=C(c1cccc(-c2ccc3c(=O)[nH]ccc3c2)c1)N1CCCC1` [Compound 352, 6-(3-(pyrrolidine-1-carbonyl)phenyl)isoquinolin-1(2H)-one], `Nc1nccc2ccc(Cc3cccc(C(=O)N4CCCC4)c3)cc12` [Compound 343, (3-((1-aminoisoquinolin-7-yl)methyl)phenyl)(pyrrolidin-1-yl)methanone] is higher in IC50: 0.5 to 5 µM for the first, greater than 5 µM for the second.

`CC(C)c1cc(N2CCNC(c3cc(N4CC(CO)C4)ccc3Br)C2)nc(N)n1` (single isomer, unassigned) [Compound 30, (R/S)-(1-(3-(4-(2-amino-6-isopropylpyrimidin-4-yl)piperazin-2-yl)-4-bromophenyl)azetidin-3-yl)methanol] and `CC(C)c1cc(N2CCNC(c3cc(O)ccc3Br)C2)nc(N)n1` (centres unmarked) [Compound 163, 3-(4-(2-amino-6-isopropylpyrimidin-4-yl)piperazin-2-yl)-4-bromophenol] cannot be ordered by IC50: less than 0.5 µM for the first, less than 0.5 µM for the second.

First: CN(C)CCNC(=O)c1csc(-c2cc(O)c3ncccc3c2)c1 [Compound 268, N-(2-(dimethylamino)ethyl)-5-(8-hydroxyquinolin-6-yl)thiophene-3-carboxamide]
Second: CN(C)CCCNC(=O)c1ccc(-c2cc(O)c3ncccc3c2)cc1Br [Compound 313, 2-bromo-N-(3-(dimethylamino)propyl)-4-(8-hydroxyquinolin-6-yl)benzamide]
The IC50 of the first is lower: less than 0.5 µM for the first, 0.5 to 5 µM for the second. The first is the more potent here.

Compared with `CN(C)CCCNC(=O)c1ccc(-c2cc(O)c3nccnc3c2)cc1` [Compound 285, N-(3-(dimethylamino)propyl)-4-(8-hydroxyquinoxalin-6-yl)benzamide], `CN(C)CCCNC(=O)c1ccc(-c2cc(O)c3c(c2)CCCN3)cc1` [Compound 284, N-(3-(dimethylamino)propyl)-4-(8-hydroxy-1,2,3,4-tetrahydroquinolin-6-yl)benzamide] is higher in IC50: less than 0.5 µM for the first, greater than 5 µM for the second. The first is the more potent here.

`CN1CCC(NC(=O)c2n[nH]c3ccc(-c4ccc5ccnc(N)c5c4)cc23)CC1` [Compound 338, 5-(1-aminoisoquinolin-7-yl)-N-(1-methylpiperidin-4-yl)-1H-indazole-3-carboxamide] and `CN1CC(NC(=O)c2ccc(-c3cc(O)c4ncccc4c3)cc2)C1` [Compound 291, 4-(8-hydroxyquinolin-6-yl)-N-(1-methylazetidin-3-yl)benzamide] cannot be ordered by IC50: less than 0.5 µM for the first, less than 0.5 µM for the second.

`CC(C)c1cc(N2CCCC(F)(c3ccccc3Br)C2)nc(N)n1` (centres unmarked) [Compound 233, 4-(3-(2-bromophenyl)-3-fluoropiperidin-1-yl)-6-isopropylpyrimidin-2-amine] and `Nc1cc(N2CCCC(F)(c3ccccc3Br)C2)nc(N)n1` (centres unmarked) [Compound 228, 6-(3-(2-bromophenyl)-3-fluoropiperidin-1-yl)pyrimidine-2,4-diamine] fall in the same range of IC50: 0.5 to 5 µM for the first, 0.5 to 5 µM for the second.

First: Nc1cc(N2CCCC(n3cnc4ccccc43)C2)nc(N)n1 (centres unmarked) [Compound 260, 6-(3-(1H-benzo[d]imidazol-1-yl)piperidin-1-yl)pyrimidine-2,4-diamine]
Second: CC(C)c1cc(N2CCCC(c3ncn4ccccc34)C2)nc(N)n1 (centres unmarked) [Compound 235, 4-(3-(imidazo[1,5-a]pyridin-1-yl)piperidin-1-yl)-6-isopropylpyrimidin-2-amine]
The IC50 of the first is higher: greater than 5 µM for the first, less than 0.5 µM for the second. The second is the more potent here.

`Nc1nc2c(c(N3CCCC(c4ccn[nH]4)C3)n1)CSC2` (centres unmarked) [Compound 199, 4-(3-(1H-pyrazol-5-yl)piperidin-1-yl)-5,7-dihydrothieno[3,4-d]pyrimidin-2-amine] and `Nc1nc(N2CCCC(c3ccn[nH]3)C2)c2[nH]ccc2n1` (centres unmarked) [Compound 206, 4-(3-(1H-pyrazol-5-yl)piperidin-1-yl)-5H-pyrrolo[3,2-d]pyrimidin-2-amine] cannot be ordered by IC50: greater than 5 µM for the first, greater than 5 µM for the second.

`Nc1nc(N2CCN[C@@H](c3ccccc3Br)C2)c2[nH]ccc2n1` (racemic) [Compound 43, (S/R)-4-(3-(2-bromophenyl)piperazin-1-yl)-5H-pyrrolo[3,2-d]pyrimidin-2-amine] and `CC(C)c1cc(N2CCNC(c3c[nH]c4ccccc34)C2)nc(N)n1` (centres unmarked) [Compound 138, 4-(3-(1H-indol-3-yl)piperazin-1-yl)-6-isopropylpyrimidin-2-amine] fall in the same range of IC50: 0.5 to 5 µM for the first, 0.5 to 5 µM for the second.

`CC(C)c1cc(N2CCCCC(O)(c3ccccc3Br)C2)nc(N)n1` (centres unmarked) [Compound 226, 1-(2-amino-6-isopropylpyrimidin-4-yl)-3-(2-bromophenyl)azepan-3-ol] and `Cc1ccccc1C1CN(c2cc(C(C)C)nc(N)n2)CCN1` (centres unmarked) [Compound 177, 4-isopropyl-6-(3-(o-tolyl)piperazin-1-yl)pyrimidin-2-amine] cannot be ordered by IC50: greater than 5 µM for the first, greater than 5 µM for the second.

`CC(C)c1nc(N2CCCC(c3cnc4ccccn34)C2)c2nc[nH]c2n1` (centres unmarked) [Compound 376, 6-(3-(imidazo[1,2-a]pyridin-3-yl)piperidin-1-yl)-2-isopropyl-9H-purine] and `c1ccn2c(C3CCCN(c4ccnc5[nH]cnc45)C3)cnc2c1` (centres unmarked) [Compound 62, 7-(3-(imidazo[1,2-a]pyridin-3-yl)piperidin-1-yl)-3H-imidazo[4,5-b]pyridine] cannot be ordered by IC50: less than 0.5 µM for the first, less than 0.5 µM for the second.

`CC(C)c1cc(N2CCNC(c3csc4ccccc34)C2)nc(N)n1` (centres unmarked) [Compound 162, 4-(3-(benzo[b]thiophen-3-yl)piperazin-1-yl)-6-isopropylpyrimidin-2-amine] and `CN1CCN(c2ccc(Br)c(C3CN(c4cc(N)nc(N)n4)CCN3)c2)CC1` (single isomer, unassigned) [Compound 51, R or S 6-(3-(2-bromo-5-(4-methylpiperazin-1-yl)phenyl)piperazin-1-yl)pyrimidine-2,4-diamine] fall in the same range of IC50: 0.5 to 5 µM for the first, 0.5 to 5 µM for the second.

`CNC(=O)CCC1CCCN(c2nc(N)nc3c2CCCN3)C1` (centres unmarked) [Compound 140, 3-(1-(2-amino-5,6,7,8-tetrahydropyrido[2,3-d]pyrimidin-4-yl)piperidin-3-yl)-N-methylpropanamide] showed an IC50 of 0.5 to 5 µM.
